Experimental data published in patent US4727086A, “Certain anti-hypertensive 2,3-dihydrobenzofuran compounds” (Adir et Compagnie, priority 1985, dated 1988).
pIC50: −log10 of the molar value.

How the values were obtained:
mongrel dogs = test: Haemodynamic effects in vivo in anaesthetised dogs
Description: Haemodynamic Effects In Vivo
The haemodynamic effects were assessed in mongrel dogs weighing from 25 to 30 kg which had been anaesthetised with sodium phenobarbital, had undergone a thoractomy at the 5th left intercostal space and carried electromagnetic rings at the level of the circumflex branch of the left coronary artery and at the level of the ascending aorta. The maximum bradycardic effect (E.B. max.), the mean coronary resistances (C.V.R.M.), the coronary output (C.B.F.M.), and the arterial pressure (P.A.) were measured after the intravenous injection of a dose of 300 μg/kg and 1000 μg/kg of the compounds of Examples 1 and 13.
Table 5 summarises the various results which are expressed as percentage increases (+%) or percentage decreases (-%) in the values in relation to those observed before treatment.

[1] = tested on: coronary artery of the dog; test: Contraction-inhibiting activity on the coronary artery of the dog (in vitro); type: cell-based; settings: Canis lupus familiaris, 0.25 h, contraction induced by 100 mM potassium ions, reactivation with 10 and 20 mM calcium ions, 15-minute action, read-out: ED50 (dose capable of inhibiting 50% of the maximum contraction)
Description: Assessment of the Contraction-Inhibiting Activity on the Coronary Artery of the Dog
The inhibiting activity on contraction induced by calcium ions was assessed in vitro on the coronary artery of the dog according to the method described by Godfraind and Miller in Circ. Res. (1983) 52, No. 2, pp. 81-91. Contraction was induced by a solution containing 100 millimoles of potassium ions per liter. The compounds to be examined were then introduced in cumulative doses and after a 15-minute period of action the preparation was reactivated with solutions having a calcium ion concentration of 10 and 20 mM. The dose capable of inhibiting 50% (ED50) of the maximum contraction was assessed.

Row | Structure (SMILES) | pIC50 [1] | other results
1 | COc1ccc2c(c1)C(CCCN(C)CCc1ccc(OC)c(OC)c1)(c1ccccc1)CO2.O=P(O)(O)O (centres unmarked) [Example 1, 5-methoxy-3-phenyl-3-[3-(N-(3,4-dimethoxyphenethyl)-N-methylamino)-propyl]-2,3-dihydrobenzofuran phosphate] | 5.77 | CBFM (coronary output), % change vs before treatment (mongrel dogs; 300 μg/kg intravenous): +51%; CRVM (mean coronary resistances), % change vs before treatment (mongrel dogs; 300 μg/kg intravenous): -39%; EB max (maximum bradycardic effect), % change vs before treatment (mongrel dogs; 300 μg/kg intravenous): -7%; PA (arterial pressure), % change vs before treatment (mongrel dogs; 300 μg/kg intravenous): -9%; CBFM (coronary output), % change vs before treatment (mongrel dogs; 1000 μg/kg intravenous): +85%; CRVM (mean coronary resistances), % change vs before treatment (mongrel dogs; 1000 μg/kg intravenous): -57%; EB max (maximum bradycardic effect), % change vs before treatment (mongrel dogs; 1000 μg/kg intravenous): -13%; PA (arterial pressure), % change vs before treatment (mongrel dogs; 1000 μg/kg intravenous): -21%
2 | COc1cccc(N2CCN(CCCC3(c4ccccc4)COc4ccc(Cl)cc43)CC2)c1 (centres unmarked) [Example 2, 5-chloro-3-phenyl-3-[3-(4-(3-methoxyphenyl)-1-piperazinyl)-propyl]-2,3-dihydrobenzofuran] | 5.00 | –
3 | COc1ccc(CCN(C)CCCC2(c3ccccc3)COc3cc(OC)c(OC)cc32)cc1OC (centres unmarked) [Example 3, 5,6-dimethoxy-3-phenyl-3-[3-(N-(3,4-dimethoxyphenethyl)-N-methylamino)-propyl]-2,3-dihydrobenzofuran] | 4.05 | –
4 | COc1ccc(CCN(C)CCCC2(c3ccccc3)COc3ccc(Cl)cc32)cc1OC (centres unmarked) [Example 4, 5-chloro-3-phenyl-3-[3-(N-(3,4-dimethoxyphenethyl)-N-methylamino)-propyl]-2,3-dihydrobenzofuran] | 4.52 | –
5 | COc1ccc2c(c1)C(CCCN(C)CCc1ccc(OC)c(OC)c1)(c1ccc(C)cc1)CO2 (centres unmarked) [Example 5, 5-methoxy-3-(4-methylphenyl)-3-[3-(N-(3,4-dimethoxyphenethyl)-N-methylamino)-propyl]-2,3-dihydrobenzofuran] | 4.59 | –
6 | COc1ccc2c(c1)C(CCCN(C)C1Cc3cc(OC)c(OC)cc3C1)(c1ccccc1)CO2 (centres unmarked) [Example 6, 5-methoxy-3-phenyl-3-[3-(N-(5,6-dimethoxy-2-indanyl)-N-methylamino)-propyl]-2,3-dihydrobenzofuran] | 5.00 | –
7 | COc1ccc2c(c1)C(CCCN1CCc3cc(OC)c(OC)cc3C1)(c1ccccc1)CO2 (centres unmarked) [Example 7, 5-methoxy-3-phenyl-3-[3-(6,7-dimethoxy-1,2,3,4-tetrahydro-2-isoquinolyl)-propyl]-2,3-dihydrobenzofuran] | 5.20 | –
8 | COc1ccc2c(c1)C(CCCN(C)CCc1ccccc1)(c1ccccc1)CO2 (centres unmarked) [Example 8, 5-methoxy-3-phenyl-3-[3-(N-phenethyl-N-methylamino)-propyl]-2,3-dihydrobenzofuran] | 5.08 | –
9 | COc1ccc2c(c1)C(CCCN1CCN(C)CC1)(c1ccccc1)CO2 (centres unmarked) [Example 9, 5-methoxy-3-phenyl-3-[3-(4-methyl-1-piperazinyl)-propyl]-2,3-dihydrobenzofuran] | 4.46 | –
10 | CCN(CC)CCCC1(c2ccccc2)COc2ccc(OC)cc21 (centres unmarked) [Example 10, 5-methoxy-3-phenyl-3-[3-(N-diethylamino)-propyl]-2,3-dihydrobenzofuran] | 5.21 | –
11 | COc1ccc2c(c1)C(CCCN(C)CCc1ccc(OC)c(OC)c1)(c1ccccc1)C(O)O2 (centres unmarked) [Example 11, 2-Hydroxy-5-methoxy-3-phenyl-3-[3-(N-(3,4-dimethoxyphenethyl)-N-methylamino)-propyl]-2,3-dihydrobenzofuran phosphate] | 5.21 | –
12 | COc1ccc(CCN(C)CCCC2(c3ccccc3)c3cc(OC)c(OC)cc3OC2O)cc1OC (centres unmarked) [Example 12, 2-hydroxy-5,6-dimethoxy-3-phenyl-3-[3-(N-(3,4-dimethoxyphenethyl)-N-methylamino)-propyl]-2,3-dihydrobenzofuran phosphate] | 5.10 | –
13 | COc1ccc(CCN(C)CCCC2(c3ccccc3)COc3ccccc32)cc1OC.O=P(O)(O)O (centres unmarked) [Example 13, 3-phenyl-3-[3-(N-(3,4-dimethoxyphenethyl)-N-methylamino)-propyl]-2,3-dihydrobenzofuran phosphate] | 5.40 | CBFM (coronary output), % change vs before treatment (mongrel dogs; 300 μg/kg intravenous): +31%; CRVM (mean coronary resistances), % change vs before treatment (mongrel dogs; 300 μg/kg intravenous): -36%; EB max (maximum bradycardic effect), % change vs before treatment (mongrel dogs; 300 μg/kg intravenous): -8%; PA (arterial pressure), % change vs before treatment (mongrel dogs; 300 μg/kg intravenous): -16%; CBFM (coronary output), % change vs before treatment (mongrel dogs; 1000 μg/kg intravenous): +59%; CRVM (mean coronary resistances), % change vs before treatment (mongrel dogs; 1000 μg/kg intravenous): -60%; EB max (maximum bradycardic effect), % change vs before treatment (mongrel dogs; 1000 μg/kg intravenous): -10%; PA (arterial pressure), % change vs before treatment (mongrel dogs; 1000 μg/kg intravenous): -31%
14 | c1ccc(C2(CCCN3CCc4ccsc4C3)COc3ccccc32)cc1 (centres unmarked) [Example 14, 3-phenyl-3-[3-(1,2,6,7-tetrahydro-(2,3-c)-thieno-1-pyridinyl)-propyl]-2,3-dihydrobenzofuran] | 5.05 | –
15 | c1ccc(C2(CCCN3CCOCC3)COc3ccccc32)cc1 (centres unmarked) [Example 15, 3-phenyl-3-[3-(4-morpholinyl)-propyl]-2,3-dihydrobenzofuran] | 4.30 | –
16 | COc1cccc(N2CCN(CCCC3(c4ccccc4)COc4ccccc43)CC2)c1 (centres unmarked) [Example 16, 3-phenyl-3-[3-(4-(3-methoxyphenyl)-1-piperazinyl)-propyl]-2,3-dihydrobenzofuran] | 5.05 | –
